This is an account of results in patent US20240174680A1, “CDK2 INHIBITORS AND METHODS OF USING THE SAME” (Cedilla Therapeutics, Inc., priority 2021, published 2024).

The structures appear in SMILES notation.

The target of the experiment is CDK2/Cyclin E1 (Homo sapiens, UniProt P24941). The experiment in a line: CDK2/Cyclin E1 Caliper LabChip EZ Reader mobility shift assay. Format: biochemical. More on the design: purchased Eurofins 14-475. The settings on record: read-out: Caliper Assay (CDK2/CCNE1): IC50. The gist of the method:
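Substrate-to-product conversion of fluorescent peptide (1.5 μM final) read by capillary electrophoresis after 100 min reaction, EDTA-quenched. Enzyme (2.5 nM final) and ATP (100 μM final) were preincubated 30 min with inhibitor dilutions first. % activity vs concentration fitted four-parameter for IC50.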

For `C[C@@H](OCC1CCCCC1)[C@H](NC(=O)[C@@H]1CN(C(=O)c2cnn(Cc3ccccc3)c2)CC12CN(C(=O)[C@H]1CC1(C)C)C2)C(=O)N1CCC(c2nccs2)CC1` [I-445], the IC50 is at most 10 nM.

As to `C[C@@H](OCC1CCCCC1)[C@H](NC(=O)[C@@H]1CN(C(=O)c2cnn(Cc3ccccc3)c2)CC12CN(C(=O)[C@H]1CC1(C)C)C2)C(=O)N1CCC(c2ncc[nH]2)CC1` [I-446], the IC50 is at most 10 nM.

Regarding `COC[C@H]1CCCN(C(=O)[C@@H](NC(=O)[C@@H]2CN(C(=O)c3cncs3)CC23CN(S(=O)(=O)C(C)(C)C)C3)[C@@H](C)OCC2CCCCC2)C1` [I-447, (S)-2-(tert-butylsulfonyl)-N-((2S,3R)-3-(cyclohexylmethoxy)-1-((S)-3-(methoxymethyl)piperidin-1-yl)-1-oxobutan-2-yl)-6-(thiazole-5-carbonyl)-2,6-diazaspiro[3.4]octane-8-carboxamide], the IC50 lay within 100 to 1000 nM.

`C[C@@H](OCC12CCC(CC1)OC2)[C@H](NC(=O)[C@@H]1CN(C(=O)c2cnco2)CC12CN(C(=O)C(C)(C)C1CC1)C2)C(C)(C)O` [I-448]: the IC50 lay within 1000 to 10000 nM.

Turning to `C[C@@H](OCC1CCCCC1)[C@H](NC(=O)[C@@H]1CN(C(=O)c2cnn(Cc3ccccc3)c2)CC12CN(C(=O)[C@H]1CC1(C)C)C2)C(=O)N1CCC(c2nnco2)CC1` [I-449], the IC50 is at most 10 nM.

With `C[C@@H](OCC12CCC(CC1)OC2)[C@H](NC(=O)[C@@H]1CN(C(=O)c2cnco2)CC12CN(C(=O)[C@H]1CC1(C)C)C2)C(C)(C)O` [I-450], the IC50 lay within 100 to 1000 nM.

Turning to `COC1CCN(C(=O)[C@@H](NC(=O)[C@@H]2CN(C(=O)c3sc(C)nc3C)CC23CN(C(=O)[C@H]2CC2(C)C)C3)[C@@H](C)OCC23CCC(CC2)OC3)CC1` [I-451], the IC50 was in the range of 10 to 100 nM.

As for `C[C@@H](OCC12CCC(CC1)OC2)[C@H](NC(=O)[C@@H]1CN(C(=O)c2cncs2)CC12CN(C(=O)[C@H]1CC1(C)C)C2)C(=O)N1CCC(C)(C)CC1` [I-452], the IC50 was at most 10 nM.

With `C[C@@H](OCC12CCC(CC1)OC2)[C@H](NC(=O)[C@@H]1CN(C(=O)c2cncs2)CC12CN(C(=O)[C@H]1CC1(C)C)C2)C(=O)N1CCCC2(COC2)C1` [I-453], the IC50 was at most 10 nM.

For `C[C@@H](OCC12CCC(CC1)OC2)[C@H](NC(=O)[C@@H]1CN(C(=O)c2cncs2)CC12CN(C(=O)[C@H]1CC1(C)C)C2)C(=O)N1CCC(C(F)(F)F)CC1` [I-454, (S)—N-((2S,3R)-3-((2-oxabicyclo[2.2.2]octan-4-yl)methoxy)-1-oxo-1-(4-(trifluoromethyl)piperidin-1-yl)butan-2-yl)-2-((S)-2,2-dimethylcyclopropane-1-carbonyl)-6-(thiazole-5-carbonyl)-2,6-diazaspiro[3.4]octane-8-carboxamide], the IC50 is at most 10 nM.

As to `Cc1nc(C)c(C(=O)N2C[C@@H](C(=O)N[C@H](C(=O)N3CCC(OC(F)(F)F)CC3)[C@@H](C)OCC34CCC(CC3)OC4)C3(C2)CN(C(=O)[C@H]2CC2(C)C)C3)s1` [I-455], the IC50 is 10 to 100 nM.

For the compound `Cc1nc(C)c(C(=O)N2C[C@@H](C(=O)N[C@H](C(=O)N3CCC(C(F)(F)F)CC3)[C@@H](C)OCC34CCC(CC3)OC4)C3(C2)CN(C(=O)[C@H]2CC2(C)C)C3)s1` [I-456], the IC50 was at most 10 nM.

In the case of `C[C@@H](OCC12CCC(CC1)OC2)[C@H](NC(=O)[C@@H]1CN(C(=O)c2cncs2)CC12CN(C(=O)[C@H]1CC1(C)C)C2)C(=O)N1CCC(OC(F)(F)F)CC1` [I-457], the IC50 lay in the range of 10 to 100 nM.

With `C[C@@H](OCC12CCC(CC1)OC2)[C@H](NC(=O)[C@@H]1CN(C(=O)c2cncs2)CC12CN(C(=O)[C@H]1CC1(C)C)C2)C(=O)N1CCC2(CC1)CC2` [I-458], the IC50 is at most 10 nM.

For the compound `[2H]C([2H])([2H])OC[C@H]1CCCN(C(=O)[C@@H](NC(=O)[C@@H]2CN(C(=O)c3cncs3)CC23CN(C(=O)C(C)(C)C2CC2)C3)[C@@H](C)OCC23CCC(CC2)OC3)C1` [I-459], the IC50 is 10 to 100 nM.

Take `C[C@@H](OCC12CCC(CC1)OC2)[C@H](NC(=O)[C@@H]1CN(C(=O)c2cncs2)CC12CN(C(=O)[C@H]1CC1(C)C)C2)C(=O)N1CCC[C@H](COC(F)(F)F)C1` [I-460]: the IC50 was at most 10 nM.
